SMILES strings stand for the structures.

T1 sequence (Q9HBA0 whole entry): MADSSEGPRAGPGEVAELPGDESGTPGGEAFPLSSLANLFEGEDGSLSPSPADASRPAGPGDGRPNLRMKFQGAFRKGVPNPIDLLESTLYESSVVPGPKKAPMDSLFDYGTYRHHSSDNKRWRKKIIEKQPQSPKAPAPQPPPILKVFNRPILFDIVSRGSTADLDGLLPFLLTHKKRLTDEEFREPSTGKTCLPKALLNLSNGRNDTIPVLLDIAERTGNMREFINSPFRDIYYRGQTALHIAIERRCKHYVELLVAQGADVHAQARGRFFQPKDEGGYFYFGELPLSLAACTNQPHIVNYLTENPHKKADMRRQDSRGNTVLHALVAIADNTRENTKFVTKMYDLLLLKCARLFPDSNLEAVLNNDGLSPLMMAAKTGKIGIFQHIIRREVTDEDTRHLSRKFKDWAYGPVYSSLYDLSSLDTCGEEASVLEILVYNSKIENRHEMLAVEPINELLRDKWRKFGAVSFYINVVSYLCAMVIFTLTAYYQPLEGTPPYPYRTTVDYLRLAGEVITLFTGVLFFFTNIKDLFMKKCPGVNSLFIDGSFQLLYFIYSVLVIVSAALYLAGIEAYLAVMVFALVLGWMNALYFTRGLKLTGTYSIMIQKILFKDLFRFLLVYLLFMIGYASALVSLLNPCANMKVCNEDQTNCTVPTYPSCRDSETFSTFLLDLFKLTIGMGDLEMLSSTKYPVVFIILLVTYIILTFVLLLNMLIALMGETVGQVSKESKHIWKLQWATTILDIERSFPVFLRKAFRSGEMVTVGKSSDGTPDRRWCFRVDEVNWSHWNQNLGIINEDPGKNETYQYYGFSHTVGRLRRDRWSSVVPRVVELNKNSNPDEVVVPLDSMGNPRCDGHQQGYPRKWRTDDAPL

System in one data set: not listed separately
The data set is described as follows: Test Example 7 Metabolism stability test. It counts as in vitro ADME. To be noted: 0.5 μmol/L of test compound, human liver microsomes 0.5 mg protein/mL, 37° C. As to the method:
Using commercially available pooled human hepatic microsomes, a compound of the present invention was reacted for a constant time, and a remaining rate was calculated by comparing a reacted sample and an unreacted sample, thereby, a degree of metabolism in liver was assessed.
A reaction was performed (oxidative reaction) at 37° C. for 0 minute or 30 minutes in the presence of 1 mmol/L NADPH in 0.2 mL of a buffer (50 mmol/L Tris-HCl pH 7.4, 150 mmol/L potassium chloride, 10 mmol/L magnesium chloride) containing 0.5 mg protein/mL of human liver microsomes. After the reaction, 50 μL of the reaction solution was added to 100 μL of a methanol/acetonitrile=1/1 (v/v), mixed and centrifuged at 3000 rpm for 15 minutes. The compound of the present invention in the supernatant was quantified by LC/MS/MS, and a remaining amount of the compound of the present invention after the reaction was calculated, letting a compound amount at 0 minute reaction time to be 100%. Hydrolysis reaction was performed in the absence of NADPH and glucuronidation reaction was in the presence of 5 mmol/L UDP-glucuronic acid in place of NADPH, followed by similar operations. (Result) % inhibition was shown at 0.5 μmol/L of test compound.
`CC(O)c1nc(C(O)CO)c(-c2csc(Nc3ccc(CNc4ccc(Cl)cc4F)cn3)n2)s1` (centres unmarked) [Compound I-69]: the “Percent of compound remaining after 30 min incubation” value is reported as 106%.

A further data set concerns the target T1, human TRPV4 (Homo sapiens, UniProt Q9HBA0).
T1 construct: expressed in transfected cells; host or cells: CHO-K1
The data set is described as follows: Test Example 2 Measurement of TRPV4 inhibitory activity (IC50 value). It counts as cell-based. Conditions: CHO-K1 cells stably expressing human TRPV4; DMEM 10% FBS, 5000 cells/well; final 0.15 μmol/L 4α-PDD. As to the method:
(§1) For each compound, TRPV4 inhibitory activity was measured using cells. (Method) TRPV4 inhibitory activity of the compound was evaluated in accordance with the following procedure.
(§2) (1) The TRPV4 inhibitory activity was measured using CHO-K1 cells stably expressing human TRPV4.
(2) In the day before the experimental day, frozen cell were thawed and washed with the culture medium (DMEM, 10% FBS, 2 mmol/L GlutaMax, 50 unit Penicillin, 50 μg/mL Streptomycin, 0.1 mmol/L Non-Essential Amino Acids, 25 mmol/L HEPES). Then cells were suspended in the culture medium. (3) The 384-well plates which hTRPV4/CHO cells were seeded at densities of 5000 cells/well in the culture medium and cultured in a CO2 incubator in the presence of 5% CO2 at 37° C. for overnight was used as assay plates. (4) The assay plate was washed with assay buffer (Hanks, 20 mmol/L HEPES, 2.5 mmol/L probenecid, pH7.4), and the buffer were remained at 20 μL/well. (5) 10 μl of dye loading buffer (3 μmol/L Fluo 4-AM, 0.03% Pluronic F-127/assay buffer) was added to each well, then the assay plate was incubated in a CO2 incubator in the presence of 5% CO2 at 37° C. for one hour (final 1 μmol/L Fluo4-AM). (6) The assay plate was washed with the assay buffer, and the buffers were remained at 20 μL/well. Then the assay plate was incubated for 10 min at room temperature. (7) 20 μL/well of diluted compound solution was dispensed to each well in the compound plate, and mixed with built-in Pipette and Mixer of the Fluorescence analysis system FLIPR TETRA (Molecular devices). (8) After incubation for 5 min, 20 μL/well of 4α-PDD solution were applied to each well of assay plate and mixed with the FLIPR TETRA (final 0.15 μmol/L 4α-PDD). (9) The fluorescent intensity was measured with FLIPR TETRA system for 5 min from the point of time addition the […], at Ex 470-495 nm, Em 515-575 nm wavelength.
(§3) In addition, TRPV4 inhibitory activity (IC50 value) of a compound was evaluated according to the following procedure.
(§4) (10) In the presence of the compound, the difference between maximal and minimal of fluorescent intensity value for 5 min from just before addition of 4α-PDD solution was calculated, and it was referred as Max−Min value. Max−Min value of the above compound A at 1 μmol/L was defined as 100% inhibitory activity, Max−Min value in the absence of the compound was defined as 0% inhibitory activity. The TRPV4 inhibitory activity of the compound was calculated by the following formula. Inhibition ratio=(1−(Max−Min value of the compound−100% inhibitory activity)/(0% inhibitory activity−100% inhibitory activity))×100 (11) Inhibitory activity was calculated at 10 points with three fold serial dilution, in the final concentration of the compound from 10 μmol/L to 0.5 nmol/L, the IC50 value (nmol/L) was calculated by logistic approximation method. (Result)
Usually IC50 stands for the concentration needed to halve the response being measured. A low value points to greater potency. For `CCN(CC)C(=O)N1C[C@H]2CC[C@@H](C1)N2C(=O)c1ccc(Nc2nc(-c3sc(C)nc3C)cs2)nc1` [Compound I-592], the half-maximal inhibitory concentration (IC50) was 3.9 nM. On the same count and under the same terms, under `Cc1nc(C)c(-c2csc(Nc3ccc(C(=O)N4[C@@H]5CC[C@H]4COC5)cn3)n2)s1` [Compound I-662] stands 6.7 nM; under `Cc1nc(C)c(-c2csc(Nc3ccc(C(=O)N4C[C@H]5CC[C@@H](C4)O5)cn3)n2)s1` [Compound I-703], 13 nM; under `CO[C@H]1C[C@H]2CC[C@@H](C1)N2C(=O)c1ccc(Nc2nc(-c3sc(C)nc3C)cs2)nc1` [Compound I-719], 1.6 nM.

Regarding `Cc1nc(C)c(-c2csc(Nc3ccc(C(=O)N4[C@@H]5CC[C@H]4COC5)c(F)n3)n2)s1` [Compound I-744], half-maximal inhibition (IC50) was put at 4.2 nM. On the same count and under the same terms, under `Cc1nc(C)c(-c2csc(Nc3ccc(CN4[C@@H]5CC[C@H]4COC5)cn3)n2)s1` [Compound I-799] stands 6.3 nM; under `Cc1nc(C)c(-c2csc(Nc3ccc(C(=O)N4CCOc5ccccc54)cn3)n2)s1` [Compound I-831], 2.9 nM. On the same count and under the same terms, under `Cc1nc(C)c(-c2csc(Nc3ccc(C(=O)N4[C@@H]5CC[C@H]4CSC5)cn3)n2)s1` [Compound I-843] stands 2.6 nM.

In a further data set the target is T1, human TRPV4. The data set is described as follows: Test Example 1 Measurement of TRPV4 inhibitory activity (IC50 value). It counts as cell-based. Conditions: CHO-K1 cells stably expressing human TRPV4; Fluo 4-AM, FLIPR TETRA; final 1 μmol/L 4α-PDD. As to the method:
as §1, §2
(2) In the day before the experimental day, frozen cell were thawed and washed with the culture medium (MEM-α, 10% FBS, 2 mmol/L GlutaMax, 50 unit Penicillin, 50 μg/mL Streptomycin, 20 mmol/L HEPES). Then cells were suspended in the culture medium.
(3) The 384-well plates which hTRPV4/CHO cells were seeded at densities of 4000 cells/well in the culture medium and cultured in a CO2 incubator in the presence of 5% CO2 at 37° C. for overnight was used as assay plates.
(4) The assay plate was washed with assay buffer (Hanks, 20 mmol/L HEPES, 2.5 mmol/L probenecid, pH 7.4), and the buffer were remained at 20 μL/well.
(5) 10 μl of dye loading buffer (9 μmol/L Fluo 4-AM, 0.09% Pluronic F-127/assay buffer) was added to each well, then the assay plate was incubated in a CO2 incubator in the presence of 5% CO2 at 37° C. for one hour (final 3 μmol/L Fluo4-AM).
(6) The assay plate was washed with the assay buffer, and the buffers were remained at 20 μL/well. Then the assay plate was incubated for 10 min at room temperature.
(7) 20 μL/well of diluted compound solution was dispensed to each well in the compound plate, and mixed with built-in Pipette and Mixer of the Fluorescence analysis system FLIPR TETRA (Molecular devices).
(8) After incubation for 5 min, 20 μL/well of 4α-PDD solution were applied to each well of assay plate and mixed with the FLIPR TETRA (final 1 μmol/L 4α-PDD).
(9) The fluorescent intensity was measured with FLIPR TETRA system for 5 min from the point of time addition the compound solution, at Ex 470-495 nm, Em 515-575 nm wavelength.
as §3
as §4, with “the” for “the above”, “activity))×100” for “activity))×100 (11) Inhibitory activity was calculated at 10 points with three fold serial dilution, in the final concentration of the compound from 10 μmol/L to 0.5 nmol/L, the IC50 value (nmol/L) was calculated by logistic approximation method. (Result)”
Herein, the compound A is the compound I-186 described in PCT/JP2013/058722.
(11) Inhibitory activity was calculated at 10 points with three fold serial dilution, in the final concentration of the compound from 10 μmol/L to 0.5 nmol/L, the IC50 value (nmol/L) was calculated by logistic approximation method.
Compound `Cc1nc(C(C)O)sc1-c1csc(Nc2ccc(CCOc3ccc(Cl)cc3F)cn2)n1` (centres unmarked) [Compound I-6] registered a 50% inhibitory concentration (IC50) of 52 nM. On the same count and under the same terms, under `Cc1nc([C@H](C)O)sc1-c1csc(Nc2ccc3c(n2)CCCC3Nc2ccc(Cl)cc2F)n1` (some centres unmarked) [Compound I-10] stands 14 nM. The compound `Cc1nc(C)c(-c2csc(Nc3ccc(C(=O)Cc4ccc(Cl)cc4)cn3)n2)s1` [Compound I-13] registered a half-maximal inhibitory concentration (IC50) of 6.4 nM. Still for that read-out and setting: the figure for `Cc1nc(C)c(-c2csc(Nc3ccc(S(=O)(=O)Cc4ccc(Cl)cc4)cn3)n2)s1` [Compound I-17] is 37 nM; for `Cc1nc(C)c(-c2c[nH]c(Nc3ccc(CNc4ccc(Cl)cc4F)cn3)n2)s1` [Compound I-41] it is 42 nM.

As for `Cc1nc(C)c(-c2csc(Nc3ccc(CNc4ccc(Cl)cc4F)cn3)n2)o1` [Compound I-43], the midpoint of inhibition, the IC50, lay at 39 nM. The same measure, in the same setting: under `Cc1nc([C@H](C)O)sc1-c1csc(Nc2ccc(COC(C(F)(F)F)C(F)(F)F)cn2)n1` [Compound I-45] stands 8.1 nM. On the same count and under the same terms, under `CC(=O)N(Cc1ccc(Nc2nc(-c3sc(C)nc3C)cs2)nc1)c1ccc(Cl)cc1F` [Compound I-49] stands 8.6 nM; under `Cc1nc(C)c(-c2csc(Nc3ccc(/C=C/c4ccc(Cl)cc4)cn3)n2)s1` [Compound I-54], 27 nM; under `CC(O)c1nc(CCO)c(-c2csc(Nc3ccc(CNc4ccc(Cl)cc4F)cn3)n2)s1` (centres unmarked) [Compound I-79], 27 nM. The compound `CO[C@H]1C[C@H]2CC[C@@H](C1)N2C(=O)c1ccc(Nc2nc(-c3sc(C(N)=O)nc3C)cs2)nc1` [Compound I-118] yielded a half-maximal inhibitory concentration (IC50) of 9.1 nM. For `CC(O)c1nc(CC#N)c(-c2csc(Nc3ccc(CNc4ccc(Cl)cc4F)cn3)n2)s1` (centres unmarked) [Compound I-132], the half-inhibitory concentration (IC50) worked out at 14 nM. Same read-out and setting: under `Cc1nc(C(C)O)sc1-c1csc(Nc2ccc(C(=O)Nc3ccc(C#N)cc3F)cn2)n1` (centres unmarked) [Compound I-134] stands 6.8 nM; under `Cc1nc(C(C)O)sc1-c1csc(Nc2ccc(OC(F)(F)F)cn2)n1` (centres unmarked) [Compound I-140], 42 nM; under `Cc1nc(C(C)O)sc1-c1csc(Nc2ccc(CCNc3ccc(Cl)cc3F)cn2)n1` (centres unmarked) [Compound I-150], 30 nM. On the same count and under the same terms, under `COCCN(Cc1ccc(Nc2nc(-c3sc(C)nc3C)cs2)nc1)c1ccc(Cl)cc1F` [Compound I-184] stands 4 nM; under `Cc1nc(C)c(-c2csc(Nc3ccc(C(C)Nc4ccc(Cl)cc4)cn3)n2)s1` (centres unmarked) [Compound I-188], 6.4 nM. The same measure, in the same setting: the figure for `Cc1nc(C)c(-c2csc(Nc3ccc(CN(CC(C)C)c4ccc(Cl)cc4F)cn3)n2)s1` [Compound I-200] is 2.5 nM; for `Cc1nc(C)c(-c2csc(Nc3ccc(CNC4(C(F)(F)F)CCCC4)cn3)n2)s1` [Compound I-228] it is 1.7 nM; for `Cc1nc(C)c(-c2csc(Nc3ccc(C(=O)Nc4cccnc4)cn3)n2)s1` [Compound I-257] it is 14 nM. Take `Cc1nc(C)c(-c2csc(Nc3ccc(C(=O)Nc4ccc(Oc5ccccc5)cc4)cn3)n2)s1` [Compound I-270]: the IC50 was 26 nM. On the same count and under the same terms, the figure for `Cc1nc(C)c(-c2csc(Nc3ccc(C(=O)NC(C)(C)C(F)(F)F)cn3)n2)s1` [Compound I-274] is 3.3 nM; for `Cc1nc(C)c(-c2csc(Nc3ccc(OCc4ccc(Cl)cc4)cn3)n2)s1` [Compound I-312] it is 24 nM.
